Assay results from patent US8192962B2, “Processes for detecting toxic substances” (Daikin Industries, Ltd., priority 2001, dated 2012).

Tested on: Energy system protein genes
Assay: DNA chip mRNA expression in yeast, energy system protein genes (Table 4)
Format: cell-based, Saccharomyces cerevisiae S288C
Method: Yeast (Saccharomyces cerevisiae S288C (α SUC2mal mel gap2 CUP1)) were incubated at 25° C. on YPD medium (yeast extract 1%, polypepton 2%, glucose 2%). One of toxic chemical substances was added to the cells at logarithmic growth phase, and the cells were further incubated for two hours. Cells were cultured without any chemical substance in the same condition, and were used as control. Concentrations of the chemical substances were defined to inhibit the growth of the yeast but not lead to death.
After completion of the incubation, the culture was centrifuged to collect the cells. To the cells, sodium acetate buffer (50 mM sodium acetate, 10 mM EDTA, 1% SDS) was added, and the mixture was shaken at 65° C. for five minutes, followed by returning to room temperature, and obtaining the supernatant, of which the procedures were repeated two times. To the supernatant, ½ amount of a solution of phenol/chloroform was added, and the mixture was centrifuged to give a supernatant, which was added with an equal amount of chloroform, and the mixture was centrifuged to give a supernatant. To the supernatant, an equal amount of isopropanol containing 0.3 M sodium acetate was added, and the mixture was allowed to stand at room temperature for 30 minutes, after which the mixture was centrifuged to give a sediment of the whole RNAs. Seventy % ethanol was added to the sediment, and the mixture was again centrifuged to give a sediment, which was then dried and dissolved in water. mRNA was isolated from the whole RNAs as followings. In view of the fact that a poly A chain is attached to the 3′ terminus of mRNA, a polynucleotide having a poly T structure which was immobilized on the surface of latex beads was used to trap the mRNA, and then the mRNA was washed and eluted with spine column (Oligotex-dT30<Super>mRNA Purification Kit, Takara). Reverse transcription of the mRNA was conducted with a reverse transcriptase (Super Script II Reverse Transcriptase; catalogue No. 18064-014, GibcoBRL) using fluorescence-labeled nucleotides to give cDNAs that were introduced with Cy3-dUTP or Cy5-dUTP during the reverse transcription.
The labeled cDNAs were dissolved in TE buffer (10mM Tris-HCl/1 mM EDTA, pH8.0), and the solution was dropped on the DNA chip containing the whole genes of yeast (DNA Chip Research Inc. Japan) so that the cDNAs were hybridized on the DNA chip at 65° C. for over 12 hours. The fluoresces intensity of the DNA chip was read with a scanner, and the ratio relative to the fluorescence intensity resulting from the absence of chemical substance was estimated as the following, which is shown in Tables 1 to 9: […]

CN(C)C(=S)SSC(=S)N(C)C [(10), Tetramethylthiuram disulfide] was tested, and the “The level of expressed mRNA in the presence of chemical substance/The level of expressed mRNA in the absence of chemical substance” value (yeast gene YAL060W) was 2.5, the “The level of expressed mRNA in the presence of chemical substance/The level of expressed mRNA in the absence of chemical substance” value (yeast gene YBL058W, cells incubated two hours with the chemical substance) was 2.1 and the “The level of expressed mRNA in the presence of chemical substance/The level of expressed mRNA in the absence of chemical substance” value (yeast gene YBL099W, cells incubated two hours with the chemical substance) was 0.7. For the same compound, the “The level of expressed mRNA in the presence of chemical substance/The level of expressed mRNA in the absence of chemical substance” value (yeast gene YBR001C, cells incubated two hours with the chemical substance) was 2.1, the “The level of expressed mRNA in the presence of chemical substance/The level of expressed mRNA in the absence of chemical substance” value (yeast gene YBR185C, cells incubated two hours with the chemical substance) was 1.6 and the “The level of expressed mRNA in the presence of chemical substance/The level of expressed mRNA in the absence of chemical substance” value (yeast gene YBR221C, cells incubated two hours with the chemical substance) was 1.3. For the same compound, the “The level of expressed mRNA in the presence of chemical substance/The level of expressed mRNA in the absence of chemical substance” value (yeast gene YCL040W) was 3.0, the “The level of expressed mRNA in the presence of chemical substance/The level of expressed mRNA in the absence of chemical substance” value (yeast gene YCR012W) was 1.5 and the “The level of expressed mRNA in the presence of chemical substance/The level of expressed mRNA in the absence of chemical substance” value (yeast gene YCR046C, cells incubated two hours with the chemical substance) was 1.4. The “The level of expressed mRNA in the presence of chemical substance/The level of expressed mRNA in the absence of chemical substance” value (yeast gene YCR105W, cells incubated two hours with the chemical substance) was 3.9, the “The level of expressed mRNA in the presence of chemical substance/The level of expressed mRNA in the absence of chemical substance” value (yeast gene YDL021W) was 7.4 and the “The level of expressed mRNA in the presence of chemical substance/The level of expressed mRNA in the absence of chemical substance” value (yeast gene YDL067C, cells incubated two hours with the chemical substance) was 0.9. The “The level of expressed mRNA in the presence of chemical substance/The level of expressed mRNA in the absence of chemical substance” value (yeast gene YDL078C, cells incubated two hours with the chemical substance) was 1.0, the “The level of expressed mRNA in the presence of chemical substance/The level of expressed mRNA in the absence of chemical substance” value (yeast gene YDL107W, cells incubated two hours with the chemical substance) was 1.8 and the “The level of expressed mRNA in the presence of chemical substance/The level of expressed mRNA in the absence of chemical substance” value (yeast gene YDL174C) was 1.7. For the same compound, the “The level of expressed mRNA in the presence of chemical substance/The level of expressed mRNA in the absence of chemical substance” value (yeast gene YDL181W, cells incubated two hours with the chemical substance) was 0.8, the “The level of expressed mRNA in the presence of chemical substance/The level of expressed mRNA in the absence of chemical substance” value (yeast gene YDR001C) was 3.0 and the “The level of expressed mRNA in the presence of chemical substance/The level of expressed mRNA in the absence of chemical substance” value (yeast gene YDR050C, cells incubated two hours with the chemical substance) was 1.3. The “The level of expressed mRNA in the presence of chemical substance/The level of expressed mRNA in the absence of chemical substance” value (yeast gene YDR079W, cells incubated two hours with the chemical substance) was 0.8, the “The level of expressed mRNA in the presence of chemical substance/The level of expressed mRNA in the absence of chemical substance” value (yeast gene YDR178W, cells incubated two hours with the chemical substance) was 0.8 and the “The level of expressed mRNA in the presence of chemical substance/The level of expressed mRNA in the absence of chemical substance” value (yeast gene YDR231C) was 1.4. The “The level of expressed mRNA in the presence of chemical substance/The level of expressed mRNA in the absence of chemical substance” value (yeast gene YDR298C, cells incubated two hours with the chemical substance) was 1.6, the “The level of expressed mRNA in the presence of chemical substance/The level of expressed mRNA in the absence of chemical substance” value (yeast gene YDR377W, cells incubated two hours with the chemical substance) was 0.9 and the “The level of expressed mRNA in the presence of chemical substance/The level of expressed mRNA in the absence of chemical substance” value (yeast gene YDR529C, cells incubated two hours with the chemical substance) was 0.6. The “The level of expressed mRNA in the presence of chemical substance/The level of expressed mRNA in the absence of chemical substance” value (yeast gene YEL024W, cells incubated two hours with the chemical substance) was 0.6, the “The level of expressed mRNA in the presence of chemical substance/The level of expressed mRNA in the absence of chemical substance” value (yeast gene YEL039C, cells incubated two hours with the chemical substance) was 1.2 and the “The level of expressed mRNA in the presence of chemical substance/The level of expressed mRNA in the absence of chemical substance” value (yeast gene YER178W) was 1.3. The “The level of expressed mRNA in the presence of chemical substance/The level of expressed mRNA in the absence of chemical substance” value (yeast gene YFL057C) was 46.1, the “The level of expressed mRNA in the presence of chemical substance/The level of expressed mRNA in the absence of chemical substance” value (yeast gene YFR053C) was 1.1 and the “The level of expressed mRNA in the presence of chemical substance/The level of expressed mRNA in the absence of chemical substance” value (yeast gene YGL018C, cells incubated two hours with the chemical substance) was 1.4. For the same compound, the “The level of expressed mRNA in the presence of chemical substance/The level of expressed mRNA in the absence of chemical substance” value (yeast gene YGL062W) was 2.5, the “The level of expressed mRNA in the presence of chemical substance/The level of expressed mRNA in the absence of chemical substance” value (yeast gene YGL187C, cells incubated two hours with the chemical substance) was 0.6 and the “The level of expressed mRNA in the presence of chemical substance/The level of expressed mRNA in the absence of chemical substance” value (yeast gene YGL191W, cells incubated two hours with the chemical substance) was 1.3. The “The level of expressed mRNA in the presence of chemical substance/The level of expressed mRNA in the absence of chemical substance” value (yeast gene YGL205W, cells incubated two hours with the chemical substance) was 0.6, the “The level of expressed mRNA in the presence of chemical substance/The level of expressed mRNA in the absence of chemical substance” value (yeast gene YGL256W, cells incubated two hours with the chemical substance) was 1.2 and the “The level of expressed mRNA in the presence of chemical substance/The level of expressed mRNA in the absence of chemical substance” value (yeast gene YGR008C) was 2.4. For the same compound, the “The level of expressed mRNA in the presence of chemical substance/The level of expressed mRNA in the absence of chemical substance” value (yeast gene YGR043C) was 8.4, the “The level of expressed mRNA in the presence of chemical substance/The level of expressed mRNA in the absence of chemical substance” value (yeast gene YGR062C, cells incubated two hours with the chemical substance, 25° C., YPD medium) was 1.4 and the “The level of expressed mRNA in the presence of chemical substance/The level of expressed mRNA in the absence of chemical substance” value (yeast gene YGR087C, cells incubated two hours with the chemical substance) was 0.9. The “The level of expressed mRNA in the presence of chemical substance/The level of expressed mRNA in the absence of chemical substance” value (yeast gene YGR174C, cells incubated two hours with the chemical substance) was 0.7, the “The level of expressed mRNA in the presence of chemical substance/The level of expressed mRNA in the absence of chemical substance” value (yeast gene YGR192C) was 1.3 and the “The level of expressed mRNA in the presence of chemical substance/The level of expressed mRNA in the absence of chemical substance” value (yeast gene YGR207C) was 2.6. The “The level of expressed mRNA in the presence of chemical substance/The level of expressed mRNA in the absence of chemical substance” value (yeast gene YGR244C) was 1.1, the “The level of expressed mRNA in the presence of chemical substance/The level of expressed mRNA in the absence of chemical substance” value (yeast gene YGR254W) was 1.2 and the “The level of expressed mRNA in the presence of chemical substance/The level of expressed mRNA in the absence of chemical substance” value (yeast gene YGR256W) was 2.5. The “The level of expressed mRNA in the presence of chemical substance/The level of expressed mRNA in the absence of chemical substance” value (yeast gene YHL008C) was 1.7, the “The level of expressed mRNA in the presence of chemical substance/The level of expressed mRNA in the absence of chemical substance” value (yeast gene YHR179W) was 5.8 and the “The level of expressed mRNA in the presence of chemical substance/The level of expressed mRNA in the absence of chemical substance” value (yeast gene YIL160C) was 3.8. For the same compound, the “The level of expressed mRNA in the presence of chemical substance/The level of expressed mRNA in the absence of chemical substance” value (yeast gene YIL172C) was 7.1, the “The level of expressed mRNA in the presence of chemical substance/The level of expressed mRNA in the absence of chemical substance” value (yeast gene YIR031C, cells incubated two hours with the chemical substance) was 1.0 and the “The level of expressed mRNA in the presence of chemical substance/The level of expressed mRNA in the absence of chemical substance” value (yeast gene YJL052W) was 2.0. For the same compound, the “The level of expressed mRNA in the presence of chemical substance/The level of expressed mRNA in the absence of chemical substance” value (yeast gene YJL121C, cells incubated two hours with the chemical substance) was 0.4 and the “The level of expressed mRNA in the presence of chemical substance/The level of expressed mRNA in the absence of chemical substance” value (yeast gene YJL166W, cells incubated two hours with the chemical substance) was 1.2.
